The text below walks through data of paper PMC8828861 (Communications Biology, 2022).

The target in the assay is M. tuberculosis Rho (MtbRho) (Mycobacterium tuberculosis, UniProt P9WHF3, M495L). It is filed as biochemical.

In the case of `Nc1ncnc2c1ncn2[C@@H]1O[C@H](COP(=O)(O)OP(=O)(O)OP(=O)(O)O)[C@@H](O)[C@H]1O` [ATP], the “TLC NTP hydrolysis assay with poly[rC]” value is reported as “the M495L mutant hydrolyses ATP at a steady-state rate similar to that measured for EcRho”.
